Data set [1] in a line: In vivo serum and CSF concentration after subcutaneous injection.
Method: The peptides (10 mg/kg) or vehicle control were individually subcutaneously injected into naïve mice. Serum concentrations were determined every 10 minutes by HPLC-MS using a 20-30 μl blood sample. […] CSF samples were simultaneously withdrawn from the same animals via a microdialysis probe and assayed for the peptide concentration and corrected for basal CSF levels.
The conditions of data set [2]: mouse, serum.
Method: (§1) Aliquots were withdrawn at the indicated time intervals and the peptide concentration was determined using HPLC-MS and expressed as a percentage of the initial concentration.
In data set [3] the test system is human umbilical vascular endothelial cells (HUVEC). Put plainly: xCELLigence RTCA cell activation (cell impedance). In kind it is cell-based. The text has this: Cell culture. To isolate primary hippocampal CA1 neuronal cells, whole brain was removed from neonatal rat pups (1-2 day old) and the cortices dissected away. The hippocampus was isolated and the CA1 field was excised and placed in buffer. After gentle disruption in digestion buffer, the cells were counted, placed in culture media, and plated in a 96-well format coated with poly-d-lysine. At the time of plating, cells were approximately at 50% density and were allowed to culture to 70-80% density before starting the assay. Commercially available HUVEC (Life Technologies/Thermo Fisher) was thawed and plated (5000-10,000 cells/well) in a 96-well format coated with gelatin. HUVEC cells were allowed to culture overnight before starting the assay.
Cell Activation: The xCELLigence system Real-Time Cell Analyzer (RTCA), developed by Roche Applied Science, uses microelectronic biosensor technology to do dynamic, real-time, label-free, and non-invasive analysis of cellular events including G-protein receptor activation of cells. The RTCA analysis was utilized to measure the potency and relative ability of oligopeptides of the invention and native Ang-(1-7) to activate human umbilical vascular endothelial cells (HUVEC) in culture. Following uniform cellular adherence based on a linear increase in cell impedance (CI), HUVECs were treated with Ang-(1-7) and oligopeptides of the invention. Each trace of the CI over time in FIG. 1 represents the average of 4 wells normalized to CI at the time of compound addition.

Data set [4] shares this test system. Put plainly: NO production assay (DAF-FM fluorescence, microplate reader). The settings on record: 5 minutes exposure. In kind it is cell-based. Here is the method: NO production assay. As a screen for mechanisms of action of oligopeptides of the invention, the ability to increase NO production of three oligopeptides of the invention (PN-A3, PN-A4 and PN-A5) were characterized and compared to native Ang-(1-7). Human umbilical vascular endothelial cells (HUVEC) culture plates received fluorescence reaction buffer (0.2 M phosphate buffer, pH 7, 1 mM EDTA, 0.1% glucose) containing diaminofluorescein-FM diacetate (DAF-FM, 1 μM) to measure real-time NO production. Time-resolved (10 minutes) fluorescent intensity was detected using a BioTek Synergy 2 microplate reader with excitation at 485 nm and emission at 535 nm. DAF-FM is a sensitive flourometric derivative for the selective detection of NO in live cells.
Values were normalized to control fluorescence.

For data set [5], the system named is BALB/cAnNHsd mice with intramedullary 66.1 cells (CIBP). Put plainly: Established CIBP, acute behavioral testing (flinching/guarding). It counts as in vivo. As to conditions: for pain behaviors, AT1 or AT2 antagonist administered alone: 0.4 mg/kg i.p. Here is the method: Animals: Female BALB/cAnNHsd mice (Harlan, Ind., USA) between 15 and 20 g were used in this study. Mice were housed in a climate control room on a 12-hour light/dark cycle and allowed food and water ad libitum. Animals were monitored on days 0, 7, 10, and 14 of the study for clinical signs of rapid weight loss and signs of distress.
All intraperitoneal (i.p.) injections were made at a volume of 10 mL/kg.
Arthrotomy—Intramedullary Implantation of 66.1 Cells: To induce CIBP, an arthrotomy was performed. Briefly, animals were anesthetized with 80 mg/kg ketamine-12 mg/kg xylazine (in a 10 mL/kg volume). The surgical area was shaved and cleaned with 70% ethanol and betadine. The condyles of the right femur were exposed and a burr-hole (0.66 mm) was drilled to create a space for the 66.1 cell inoculation. A 5 μl volume of 66.1 cells (8,000 cells per 1 μl) in MEM (or 5 μl MEM without cells in sham animals) was injected into the intramedullary space of the mouse femora. Proper placement of the injector was confirmed by radiograph (Faxitron X-ray imaging). Holes were sealed with bone cement and the patella reset. Muscle and skin were closed in separate layers with 5-0 vicryl suture and wound autoclips, respectively. Animals were given 8 mg/kg (10 mL/kg volume) gentamicin to prevent infection. Staples were removed 7 days post-surgery.
Acute Behavioral Testing: Fourteen days post-surgery, baseline behaviors of spontaneous flinching/guarding were recorded. Flinching was characterized by the lifting and rapid flexing of the hind paw ipsilateral to femoral inoculation when not associated with walking or other movement. Guarding was characterized by the lifting the inoculated hind limb into a fully retracted position under the torso. The total number of flinches and the time spent guarding 2 min duration was recorded. […] Antagonists were administered 30 minutes prior to Ang-(1-7). Following administration, animals were tested at over a three-hour time course until their pain behaviors returned to baseline

The next data set deals with naïve mice. Put plainly: Rotarod performance test. The settings on record: spinal 0.3 pmol/5 μL or systemic 0.058 and 10 μg/kg. It counts as in vivo. Here is the method: Rotarod: A rotarod performance test was used to determine the motor and/or sedative effects of Ang-(1-7) (Rotamex 4/8, Columbus Instruments, Columbus, Ohio, USA). Three days prior to testing, naïve mice were subjected to 5 trials in which they were able to acclimate to the rotating rod (10 revolutions/min). On the day of testing, animals were allowed one trial and then baselined. The amount of time the animal remained on the rod was recorded, with a cutoff time of 120 seconds to prevent exhaustion. Animals were dosed (i.p.) as previously described and reevaluated 15, 30, 60, and 120 minutes post-administration.
To exclude the possibility that Ang-(1-7) administration reduced mobility in order to increase tail withdraw latency, rotarod testing was performed. Naïve animals were trained to walk on a rotating rod for 2 min. After training, animals were injected with Ang-(1-7) by either spinal (0.3 pmol/5 μL) or systemic routes (0.058 and 10 μg/kg).
On the technique in general: The rotarod test checks motor coordination on a turning rod.

Data set [6] in a line: In Vitro Serum Half-Life Assay. The settings on record: mouse.
Method: as §1

Where two headings read alike, the source gives them in different places. Residues, ends and D or L forms follow the SMILES beside them. *: point of attachment. X2 = OC[C@H]1O[C@@H](O[C@H]2[C@H](O)[C@@H](O)[C@H](*)O[C@@H]2CO)[C@H](O)[C@@H](O)[C@H]1O; X1 = OC[C@H]1OC(*)[C@H](O)[C@@H](O)[C@@H]1O

For `CC[C@H](C)[C@H](NC(=O)[C@H](Cc1ccc(O)cc1)NC(=O)[C@@H](NC(=O)[C@H](CCCNC(=N)N)NC(=O)[C@@H](N)CC(=O)O)C(C)C)C(=O)N[C@@H](Cc1c[nH]cn1)C(=O)N[C@@H](COC1O[C@H](CO)[C@@H](O)[C@H](O)[C@H]1O)C(N)=O` (stereo partly drawn) [PN-A5, Ang 1-6-Ser(OGlc)-NH2] (H-DRVYIHS(X1)-NH2), the “maximum CSF concentration” value in data set [1] (10 mg/kg subcutaneous, naïve mice, microdialysis, corrected for basal CSF levels) is “about 400 nM”. Also, the Cmax in data set [1] (mouse, serum, sc, 10 mg/kg) is approximately 3.5 µM. Also, the half-life in data set [2] is 1 h.

Consider “PN-A3: Asp Arg Val Tyr Ile His Pro Ser* (glucosylated), carboxyl terminal NH2 (SEQ ID NO: 8) (DRVYIHPS; glucosylated; C-terminal amide; MOD_RES (8)..(8) Glucosylated-Ser; C-term -NH2)”, for which the “increase in cell impedance (CI) over the native Ang-(1-7)” value in data set [3] (10 nM) and in data set [3] (100 nM) was approximately 2 fold in each case. In data set [4], the “NO production versus control levels (relative peak fluorescence intensity)” value is recorded as “significant elevation of NO over control levels”.

Turning to `Cc1cc(Cn2cnc3c2C[C@@H](C(=O)O)N(C(=O)C(c2ccccc2)c2ccccc2)C3)ccc1N(C)C` [PD 123319], the “pain behaviors, AT1 or AT2 antagonist administered alone” value in data set [5] is “neither Losartan potassium nor PD 123319 significantly altered pain behaviors”. Also, in data set [5] (PD 123319 0.4 mg/kg i.p. 30 minutes prior to Ang-(1-7) 0.058 μg/kg), the “guarding or flinching versus Ang-(1-7) alone” value is recorded as “did not further increase nor decrease guarding or flinching”.

On to “PN-A4: Asp Arg Val Tyr Ile His Pro Ser** (lactosylated), carboxyl terminal NH2 (SEQ ID NO: 9) (DRVYIHPS; lactosylated; C-terminal amide; MOD_RES (8)..(8) Lactosylated-Ser; C-term -NH2)”, for which the “increase in cell impedance (CI) over the native Ang-(1-7)” value in data set [3] (100 nM) is given as approximately 2 fold. The “NO production versus control levels (relative peak fluorescence intensity)” value in data set [4] is “significant elevation of NO over control levels”.

Regarding `CC[C@H](C)[C@H](NC(=O)[C@H](Cc1ccc(O)cc1)NC(=O)[C@@H](NC(=O)[C@H](CCCNC(=N)N)NC(=O)[C@@H](N)CC(=O)O)C(C)C)C(=O)N[C@@H](Cc1c[nH]cn1)C(=O)N1CCC[C@H]1C(=O)O` [Ang-(1-7), Asp-Arg-Val-Tyr-Ile-His-Pro], the “rotarod latencies versus vehicle” value with naïve mice is recorded as “No significant differences in rotarod latencies”.

With `CCCCc1nc(Cl)c(CO)n1Cc1ccc(-c2ccccc2-c2nn[nH]n2)cc1` [Losartan potassium], in data set [5], the “pain behaviors, AT1 or AT2 antagonist administered alone” value is listed as “neither Losartan potassium nor PD 123319 significantly altered pain behaviors”. For the same compound, the “MPE in reducing flinching” value in data set [5] (Losartan potassium 0.4 mg/kg i.p. 30 minutes prior to Ang-(1-7) 0.058 μg/kg, 15 minutes post-administration) stood at 80.56%. In addition, the “maximal possible efficacy (MPE) in reducing guarding” value in data set [5] (Losartan potassium 0.4 mg/kg i.p. 30 minutes prior to Ang-(1-7) 0.058 μg/kg, 30 minutes post-administration) is 77.527%.

Regarding `CC[C@H](C)[C@H](NC(=O)[C@H](Cc1ccc(O)cc1)NC(=O)[C@@H](NC(=O)[C@H](CCCNC(=N)N)NC(=O)[C@@H](N)CC(=O)O)C(C)C)C(=O)N[C@@H](Cc1c[nH]cn1)C(=O)N[C@@H](CO[C@@H]1O[C@H](CO)[C@@H](O[C@@H]2O[C@H](CO)[C@H](O)[C@H](O)[C@H]2O)[C@H](O)[C@H]1O)C(N)=O` [Ang 1-6-Ser(OLac)-NH2] (H-DRVYIHS(X2)-NH2), the half-life in data set [6] was 5.8 h.

One may read the Cmax as the maximum level reached in the sampled fluid or tissue. In general, half-life refers to how long it takes for the measured level to halve. Read a high half-life as slow decline.

These data come from patent US10183055B2, “Ang-(1-7) derivative oligopeptides for the treatment of pain and other indications” (ARIZONA BOARD OF REGENTS ON BEHALF OF THE UNIVERSITY OF …, priority 2014, dated 2019).
